The text below walks through data of US9694016B2 (Novartis AG, priority 2013, dated 2017).

SMILES strings stand for the structures.

Sequence of b-Raf (V600E) (P15056 whole entry V600E): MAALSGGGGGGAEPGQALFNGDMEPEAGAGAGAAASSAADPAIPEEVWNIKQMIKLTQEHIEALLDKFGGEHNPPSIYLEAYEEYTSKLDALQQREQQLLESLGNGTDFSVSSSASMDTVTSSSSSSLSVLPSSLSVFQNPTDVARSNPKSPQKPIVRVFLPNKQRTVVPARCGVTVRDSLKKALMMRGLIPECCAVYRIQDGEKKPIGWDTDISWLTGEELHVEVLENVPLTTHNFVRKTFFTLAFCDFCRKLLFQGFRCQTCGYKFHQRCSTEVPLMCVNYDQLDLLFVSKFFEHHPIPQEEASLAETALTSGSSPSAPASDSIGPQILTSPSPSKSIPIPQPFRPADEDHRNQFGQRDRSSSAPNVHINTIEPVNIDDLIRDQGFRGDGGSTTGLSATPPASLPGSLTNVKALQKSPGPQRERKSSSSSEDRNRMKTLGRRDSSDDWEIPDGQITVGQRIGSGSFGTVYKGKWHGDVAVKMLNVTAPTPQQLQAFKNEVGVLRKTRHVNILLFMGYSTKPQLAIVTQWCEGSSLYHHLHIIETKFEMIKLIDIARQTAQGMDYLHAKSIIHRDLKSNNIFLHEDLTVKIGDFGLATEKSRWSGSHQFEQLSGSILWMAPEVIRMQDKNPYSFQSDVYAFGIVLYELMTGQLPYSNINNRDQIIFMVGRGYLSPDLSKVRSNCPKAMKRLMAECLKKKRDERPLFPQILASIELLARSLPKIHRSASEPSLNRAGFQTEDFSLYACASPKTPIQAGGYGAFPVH

The first assay concerns the target b-Raf (V600E) (Homo sapiens (Human), UniProt P15056, V600E). To be noted: read-out: b-Raf IC-50.
As to `COc1cc(-c2cc(NC(=O)c3cccc(C(F)(F)F)c3)ccc2C)nc(N2CCOCC2)c1` [Example 196, N-(3-(4-methoxy-6-morpholinopyridin-2-yl)-4-methylphenyl)-3-(trifluoromethyl)benzamide], the IC50 turned out to be 1.5 nM.

Still in this assay, the particulars now being: read-out: b-Raf IC-50; AlphaScreen, 60 min pre-incubation, 3 hours reaction.
Turning to `Cc1ccc(NC(=O)c2cccc(C(F)(F)F)c2)cc1-c1cc(N2CC3CC(C2)O3)c(=O)n(C)c1` [Example 464, N-(3-(5-(6-oxa-3-azabicyclo[3.1.1]heptan-3-yl)-1-methyl-6-oxo-1,6-dihydropyridin-3-yl)-4-methylphenyl)-3-(trifluoromethyl)benzamide], the IC50 came out at 16.8 nM.
Regarding `CCNc1nc(-c2cc(C(=O)Nc3cccc(C(C)(C)C#N)c3)ccc2C)cc(N2CCOCC2)n1` [Example 732, N-(3-(2-cyanopropan-2-yl)phenyl)-3-(2-(ethylamino)-6-morpholinopyrimidin-4-yl)-4-methylbenzamide], the IC50 worked out at 2.2 nM.
On the same count and under the same terms, to `Cc1ncc(NC(=O)c2ccnc(C3CC3)c2)cc1-c1cc(N2CCOCC2)c(=O)n(C)n1` [Example 682, 2-cyclopropyl-N-(6-methyl-5-(1-methyl-5-morpholino-6-oxo-1,6-dihydropyridazin-3-yl)pyridin-3-yl)isonicotinamide] belongs 6.9 nM.
On the same count and under the same terms, to `Cc1ncc(NC(=O)c2ccnc(C(C)(F)F)c2)cc1-c1cc(N2CCO[C@@H](CO)C2)n(C)c(=O)c1` [Example 529, (R)-2-(1,1-difluoroethyl)-N-(6′-(2-(hydroxymethyl)morpholino)-1′,2-dimethyl-2′-oxo-1′,2′-dihydro-[3,4′-bipyridin]-5-yl)isonicotinamide] belongs 76.1 nM; to `CCNc1nc(-c2cc(NC(=O)c3cnnc(C(C)(C)C#N)c3)cnc2C)cc(N2CCOCC2)n1` [Example 730, 6-(2-cyanopropan-2-yl)-N-(5-(2-(ethylamino)-6-morpholinopyrimidin-4-yl)-6-methylpyridin-3-yl)pyridazine-4-carboxamide], 27.2 nM; to `Cc1ccc(NC(=O)c2ccnc(C(C)(C)C#N)c2)cc1-c1cc(N2CCOCC2)nc(N[C@@H](C)CO)n1` [Example 746], 4.6 nM.
Turning to `Cc1ncc(NC(=O)c2cc(C(F)(F)F)ccn2)cc1-c1cc(N2CCOCC2)n2nccc2n1` [Example 810, N-(6-methyl-5-(7-morpholinopyrazolo[1,5-a]pyrimidin-5-yl)pyridin-3-yl)-4-(trifluoromethyl)picolinamide], the IC50 came to 1.4 nM.
For the compound `CCOc1nnc(-c2cc(NC(=O)c3ccnc(C4CC4)c3)ccc2C)cc1N1CCOCC1` [Example 563, 2-cyclopropyl-N-(3-(6-ethoxy-5-morpholinopyridazin-3-yl)-4-methylphenyl)isonicotinamide], the IC50 turned out to be 0.6 nM.
Regarding `Cc1ccc(NC(=O)c2cccc(C(F)(F)F)c2)cc1-c1cc(N2CCOCC2=O)c(=O)n(C)c1` [Example 451, N-(4-methyl-3-(1-methyl-6-oxo-5-(3-oxomorpholino)-1,6-dihydropyridin-3-yl)phenyl)-3-(trifluoromethyl)benzamide], the IC50 was found to be 83.7 nM.

Staying with this assay, now noted: read-out: b-Raf IC-50; AlphaScreen, 60 min pre-incubation, reaction 3 hours at room temperature.
Take `Cc1ccc(NC(=O)c2ccnc(C(F)(F)F)c2)cc1-c1cc(NC[C@@H](C)O)nc(N2CCOCC2)c1` [Example 991, (R)—N-(3-(2-((2-hydroxypropyl)amino)-6-morpholinopyridin-4-yl)-4-methylphenyl)-2-(trifluoromethyl)isonicotinamide]: the IC50 worked out at 2.36 nM.
Same read-out and setting: then `Cc1ncc(NC(=O)c2cnnc(C3CC3)c2)cc1-c1cc(NCCO)nc(N2CCOCC2)c1` [Example 1052, 6-cyclopropyl-N-(2′-((2-hydroxyethyl)amino)-2-methyl-6′-morpholino-[3,4′-bipyridin]-5-yl)pyridazine-4-carboxamide], with 8.24 nM.
The same measure, in the same setting: then `CCOc1cc(-c2cc(NC(=O)c3ccnc(C(C)(C)C#N)c3)cnc2C)cc(N2CCOCC2)n1` [Example 1147, 2-(2-cyanopropan-2-yl)-N-(2′-ethoxy-2-methyl-6′-morpholino-[3,4′-bipyridin]-5-yl)isonicotinamide], with 8.31 nM; and `Cc1ncc(NC(=O)c2ccnc(C(F)(F)F)c2)cc1-c1cc(C2COCCO2)nc(N2CCOCC2)c1` (centres unmarked) [Example 1165, N-(2′-(1,4-dioxan-2-yl)-2-methyl-6′-morpholino-[3,4′-bipyridin]-5-yl)-2-(trifluoromethyl)isonicotinamide], with 2.82 nM.
Same read-out and setting: to `Cc1ncc(NC(=O)c2ccnc(C(C)C)c2)cc1-c1cc(N2CCOCC2)nc(N2CC(O)C2)c1` [Example 1081, N-(2′-(3-hydroxyazetidin-1-yl)-2-methyl-6′-morpholino-[3,4′-bipyridin]-5-yl)-2-isopropylisonicotinamide] belongs 6.43 nM; to `Cc1ccc(NC(=O)c2ccnc(C(C)(C)C#N)c2)cc1-c1cc(N2CCOCC2)nc(N2CC(C)(O)C2)c1` [Example 1110, 2-(2-cyanopropan-2-yl)-N-(3-(2-(3-hydroxy-3-methylazetidin-1-yl)-6-morpholinopyridin-4-yl)-4-methylphenyl)isonicotinamide], 4.82 nM; to `Cc1ncc(NC(=O)c2cccc(C(F)(F)F)c2)cc1-c1cnc(CC2(O)CCOCC2)c(N2CCOCC2)c1` [Example 993, N-(6′-((4-hydroxytetrahydro-2H-pyran-4-yl)methyl)-2-methyl-5′-morpholino-[3,3′-bipyridin]-5-yl)-3-(trifluoromethyl)benzamide], 9.66 nM.
For `Cc1ccc(NC(=O)c2ccnc(C(F)(F)F)c2)cc1-c1cc(N2CCOCC2)nc(N2CCC(O)C2)c1` (centres unmarked) [Example 1130, N-(3-(2-(3-hydroxypyrrolidin-1-yl)-6-morpholinopyridin-4-yl)-4-methylphenyl)-2-(trifluoromethyl)isonicotinamide], the IC50 is 2.24 nM.
Still for that read-out and setting: to `Cc1ncc(NC(=O)c2ccnc(C(C)(C)F)c2)cc1-c1cc(N2CCOCC2)c(S(C)(=O)=O)nn1` [Example 927, 2-(2-fluoropropan-2-yl)-N-(6-methyl-5-(6-(methylsulfonyl)-5-morpholinopyridazin-3-yl)pyridin-3-yl)isonicotinamide] belongs 7.91 nM.

The assay is the same for the next values; noted with them: read-out: b-Raf IC-50; Table 2; AlphaScreen, 3 hours reaction.
For the compound `Cc1ccc(NC(=O)c2cc(C(F)(F)F)nn2C)cc1-c1cc(N2CCOCC2)c(=O)n(C)c1` [Example 369, 1-methyl-N-(4-methyl-3-(1-methyl-5-morpholino-6-oxo-1,6-dihydropyridin-3-yl)phenyl)-3-(trifluoromethyl)-1H-pyrazole-5-carboxamide], the IC50 was determined as 53.1 nM.
As to `CCOc1ncc(-c2cc(NC(=O)c3cccc(-c4nnco4)c3)cnc2C)cc1N1CCOCC1` [Example 244, N-(6′-ethoxy-2-methyl-5′-morpholino-[3,3′-bipyridin]-5-yl)-3-(1,3,4-oxadiazol-2-yl)benzamide], the IC50 turned out to be 7.6 nM.
The same measure, in the same setting: then `CCOc1cc(C(=O)Nc2ccc(C)c(-c3cc(N4CCOCC4)c(=O)n(C)c3)c2)ccc1F` [Example 344, 3-ethoxy-4-fluoro-N-(4-methyl-3-(1-methyl-5-morpholino-6-oxo-1,6-dihydropyridin-3-yl)phenyl)benzamide], with 3.1 nM.
Same read-out and setting: then `CCc1cccc(NC(=O)c2ccc(C)c(-c3cc(N4CCOCC4)c(=O)n(C)c3)c2)c1` [Example 435, N-(3-ethylphenyl)-4-methyl-3-(1-methyl-5-morpholino-6-oxo-1,6-dihydropyridin-3-yl)benzamide], with 2.4 nM.
